In PubChem BioAssay AID463229 (Broad Institute, 2010):
Active and inactive are the calls of the source.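 Rule for the calls: active = compounds raising the signal whose fitted half-maximal concentration is at or below their top tested dose (cut at about 25 µM in these data); inconclusive = flat fit at 30 to 70% activity, or a poor fit; inactive = the rest.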

These compounds were tested on INS-1E rat beta cells, no cytokines, CellTiter-Glo ATP, 48 h (assay: ATP level change in INS-1E without cytokines, dose response, counter-screen for beta-cell apoptosis protection project, INS-1E rat cells, ATP luminescence, cherry pick (AID 463229)).
Compound `O=[N+]([O-])c1cc(CN2CCN(c3ccccc3)CC2)c(O)c2ncccc12` has an AC50 of 3.1 µM.
Work on `Nc1c(C(=O)Nc2ccc(S(=O)(=O)N3CCCC3)cc2)sc2nc3ccc(OC(F)(F)F)cc3cc12` yielded an AC50 of 5.29 µM.
Compound `C/C(=N/NC(=O)c1ccc(C(C)(C)C)cc1)c1ccccn1` has an AC50 of 2.1 µM.
Compound `COc1ccc(-c2c([C@H]3[C@H]4C=CC[C@@H](C)[C@@H]4C(=O)N3Cc3ccccc3)ccc3ccccc23)cc1` has an AC50 of 7.67 µM.
`CC1(C)C(C=C(Cl)Cl)C1C(=O)Nc1ccc([N+](=O)[O-])cc1` (stereo unspecified) was tested, and the AC50 was 7.7 µM.
Work on `COc1ccc(-c2csc(NC(=O)c3ccccc3NS(=O)(=O)c3ccc(F)c(F)c3)n2)cc1` yielded an AC50 of 3.52 µM.
`O=C(COC(=O)c1cn(-c2ccccc2)nc1-c1ccccc1)c1cccc([N+](=O)[O-])c1` gave an AC50 of 2.8 µM.
For `Cc1ccc2c(c1)[nH]c1c(N3CCN(Cc4ccccc4)CC3)ncnc12`, the AC50 was 8.07 µM.
Work on `CC(=O)NC(c1cccs1)c1cc(F)c2cccnc2c1O` (stereo unspecified) yielded an AC50 of 6.05 µM.
For `Oc1ccccc1/C=N/Nc1nccnc1Cl`, the AC50 was 3.97 µM.
In the case of `COc1cnc(-c2ccccn2)nc1Oc1ccc(C(C)(C)C)cc1`, the AC50 is reported as 13.7 µM.
`CCCCCCn1ccc(=N)cc1` was tested, and the AC50 was 3.12 µM.
With `O=C(c1cc2sccc2n1Cc1ccccc1)N1CCN(c2nc3ccccc3s2)CC1` the AC50 was 5.51 µM.
In the case of `Cn1c(SCC(=O)N/N=C/c2ccc([N+](=O)[O-])s2)nnc1-c1ccc(Cl)cc1`, the AC50 is reported as 12.1 µM.
With `CCN(CC)CCOC(=O)c1ccc(N/C=C(/C#N)c2nc(-c3ccc4c(c3)OCO4)cs2)cc1` the AC50 was 14.2 µM.
For `C/C(=N\NC(=O)c1ccccc1NC(=O)c1ccc(Cl)cc1)c1ccncc1`, the AC50 was 0.967 µM.
`COc1ccc(O)c(/C=N/NC(=O)c2ccc(CSc3nc(C)cc(C)n3)cc2)c1` showed an AC50 of 11.2 µM.
Compound `O=[N+]([O-])c1c(Nc2ccccn2)cc(Cl)c2nonc12` has an AC50 of 7.39 µM.
`O=C(Nc1cccnc1)C1(F)C(F)(F)C(F)(F)C(F)(F)C(F)(F)C1(F)F` gave an AC50 of 3.56 µM.
`O=C(c1ccccc1)c1c2c(cc3sc4ccccc4[n+]13)-c1cccc3cccc-2c13` was tested, and the AC50 was 2.26 µM.
`Cc1cc(/C=N/n2cnnc2)c(C)n1-c1ccc(OCc2ccc(Cl)cc2)cc1` gave an AC50 of 1.26 µM.
In the case of `CC(C)(C)C1CCC2(CC1)C(C#N)=C(SCC(=O)NC1CCCCC1)NC(=O)C2C#N` (stereo unspecified), the AC50 is reported as 15.9 µM.
Work on `COCCCNC(=O)Cn1nnc(-c2ccc(NC(=O)c3cccnc3)cc2)n1` yielded an AC50 of 5.3 µM.
Compound `COC(=O)[C@H](CC(C)C)N(Cc1ccccc1)S(=O)(=O)N(Cc1ccccc1)[C@@H](CC(C)C)C(=O)OC` has an AC50 of 15.5 µM.
With `Oc1c(N=Nc2ccccn2)ccc2ccccc12` the AC50 was 1.86 µM.
For `Cc1cccc2sc(NNC(=O)c3ccc(S(=O)(=O)N4CCc5ccccc5C4)cc3)nc12`, the AC50 was 3.93 µM.
Work on `O=C(N/N=C/c1cc(Cl)ccc1O)c1cccnc1` yielded an AC50 of 8.72 µM.
For `O=S(=O)(Nc1cc(Sc2cccc3cccnc23)c(O)c2ccccc12)c1ccc(F)cc1`, the AC50 was 3.9 µM.
`C/C(=N\NC(=O)c1nnn(-c2nonc2N)c1-c1ccccc1)c1ccccc1O` showed an AC50 of 2.17 µM.
In the case of `O=C(N/N=C/c1cc(Br)cc(Br)c1O)c1ccncc1`, the AC50 is reported as 7.34 µM.
Compound `O=[N+]([O-])c1cc(/C=N/Nc2nc3ccccc3[nH]2)c(O)cc1O` has an AC50 of 2.01 µM.
Work on `COc1ccc2cc1Oc1ccc(cc1)C[C@H]1c3cc(c(OC)cc3CCN1C)Oc1c(O)c(OC)cc3c1[C@H](C2)N(C)CC3` yielded an AC50 of 7.07 µM.
In the case of `CC(CNC(=O)c1ccc(OC2CCN(Cc3ccccn3)CC2)cc1)Oc1cccnc1` (stereo unspecified), the AC50 is reported as 7.36 µM.
`Cc1ccc(C2(c3ccc(C)cc3)CC2C(=O)Nc2ccc([N+](=O)[O-])cc2O)cc1` (stereo unspecified) showed an AC50 of 3.79 µM.
For `CNc1nc2cc([N+](=O)[O-])c([N+](=O)[O-])cc2nc1NC`, the AC50 was 0.278 µM.
Compound `CCN1/C(=C/c2cccc[n+]2C)Sc2ccc(OC)cc21` has an AC50 of 1.58 µM.
Work on `O=C(N/N=C/c1ccc(O)cc1O)c1ccc(NC(=O)C2CCCCC2)cc1` yielded an AC50 of 13 µM.
For `Cc1sc2ncnc(N3CCN(CCOc4ccc(Cl)cc4)CC3)c2c1C`, the AC50 was 4.74 µM.
Compound `CCn1c(=O)c(C(=O)Nc2nc3ccccc3[nH]2)c(O)c2ccccc21` has an AC50 of 6.03 µM.
For `c1ccc(CN2CCN(Cc3c[nH]c4ccccc34)CC2)cc1`, the AC50 was 7.83 µM.
For `Oc1c(C(Nc2cccc(C(F)(F)F)c2)c2ccncc2)ccc2cccnc12` (stereo unspecified), the AC50 was 6.84 µM.
For `COc1ccc(-n2c(-c3ccc(Cl)cc3)c[n+]3c2CCCCC3)cc1`, the AC50 was 1.6 µM.
Compound `FC(F)(F)c1cccc(-c2nc3nc(Cl)c(Cl)nc3[nH]2)c1` has an AC50 of 3.13 µM.
In the case of `COC(=O)C1=C(c2ccc(OCc3ccccc3)cc2)C[C@@H]2CC[C@H]1N2C(=O)NC1CCN(Cc2ccccc2)CC1`, the AC50 is reported as 7.55 µM.
`CCc1cc(CNC(=O)c2ccc3nc(Cc4ccc(OC)c(OC)c4)oc3c2)on1` showed an AC50 of 9.39 µM.
In the case of `Cc1cc(C)nc(N/N=C/c2cc(Br)ccc2O)n1`, the AC50 is reported as 12.6 µM.
Work on `CNC(=O)c1sc(N2N=C3/C(=C/c4ccccc4)CCCC3C2c2ccccc2)nc1C` (stereo unspecified) yielded an AC50 of 5.11 µM.
`CC1CCN(Cc2c(C(=O)N/N=C/c3cc(Cl)ccc3O)nnn2-c2nonc2N)CC1` was tested, and the AC50 was 2.08 µM.
Work on `COc1cc(C(=O)NC(=S)NNC(=O)c2cnccn2)cc(OC)c1OC` yielded an AC50 of 7.66 µM.
In the case of `CC(C)(C)C1C/C(=C/c2ccccn2)C(=O)/C(=C/c2ccccn2)C1` (stereo unspecified), the AC50 is reported as 0.672 µM.
Work on `COc1ccc(-c2c[n+](CC(=O)OC3CC(C)CCC3C(C)C)c3n2CCC3)cc1` (stereo unspecified) yielded an AC50 of 1.87 µM.
Compound `CCCCCCOC(=O)C[N+](C)(C)CCOC1CC2CCC1(C)C2(C)C` (stereo unspecified) has an AC50 of 4.48 µM.
Compound `O=C(CNC(=O)c1ccccc1)N/N=C/c1cc(Br)ccc1O` has an AC50 of 15.2 µM.
`Cc1cccc(NC2=C/C(=N/S(=O)(=O)c3cccs3)c3ccccc3C2=O)c1` was tested, and the AC50 was 3.97 µM.
In the case of `CCCCCCCNC1=CC(=O)CC(c2ccccc2)C1` (stereo unspecified), the AC50 is reported as 9.84 µM.
With `OC(CNCCC1C=Nc2ccccc21)Cn1c2ccc(Cl)cc2c2cc(Cl)ccc21` (stereo unspecified) the AC50 was 7.93 µM.
Work on `O=C(N/N=C/c1cc(Cl)ccc1O)C(=O)Nc1ccccc1OC(F)(F)C(F)F` yielded an AC50 of 8.81 µM.
Compound `CC(C)(C)CN1CCC(Oc2cccc(C(=O)NCCCOc3cccnc3)c2)CC1` has an AC50 of 2.13 µM.
In the case of `CCOc1cc(/C=C2\COc3ccccc3C2=O)cc(Br)c1OCC(=O)N(C)C`, the AC50 is reported as 11.1 µM.
With `Cc1cc(N2CCN(c3nc4ccccc4s3)CC2)n2ncnc2n1` the AC50 was 7.32 µM.
`CCOC(=O)N1CCN(S(=O)(=O)c2ccc(C(=O)NNc3nc4c(C)cc(C)cc4s3)cc2)CC1` was tested, and the AC50 was 11.3 µM.
`O=C1/C(=C/c2ccc(N3CCOCC3)o2)SC(=Nc2ccccc2)N1CCc1c[nH]c2ccccc12` was tested, and the AC50 was > 26 µM (inactive).
`Cc1cc(C(=O)C(C)OC(=O)c2ccc(NC(=O)CC#N)cc2)c(C)n1-c1ccc(OC(F)F)cc1` (stereo unspecified) gave an AC50 of 8.14 µM.
`Cc1cc(-c2ccccc2)cc(-c2ccccc2)[n+]1CCc1ccccc1` was tested, and the AC50 was under 0.195 µM.
With `Cc1cc(NC2CCCCC2)nc(NCc2ccccc2)n1` the AC50 was 3.71 µM.
For `O=C(N/N=C/c1ccccc1O)c1ccc2c(c1)OCO2`, the AC50 was 7.41 µM.
`C=C[C@H](CC(C)C)N(Cc1ccccc1)S(=O)(=O)N(Cc1ccc(OC)cc1)[C@H](C=C)CC(C)C` showed an AC50 of 5.73 µM.
Work on `O=C(N/N=C/c1sc2ccccc2c1O)c1ccccc1` yielded an AC50 of 3.92 µM.
In the case of `Oc1c(C(c2ccccc2Cl)N2CCCC2)ccc2cccnc12` (stereo unspecified), the AC50 is reported as 7.11 µM.
`Cc1nc2ccccc2n1/N=C/c1ccc([N+](=O)[O-])s1` gave an AC50 of 1.92 µM.
`COc1ccc(Cc2nnc(N/N=C/c3ccc(O)cc3)[nH]c2=O)cc1OC` gave an AC50 of 4.32 µM.
In the case of `COc1cc([N+](=O)[O-])cc(/C=N/NC(=O)c2cc(-c3ccccc3)nc3ccccc23)c1O`, the AC50 is reported as 9.5 µM.
With `Cc1cccc(NC(=O)Nc2cccc(Oc3c(F)c(F)c(F)c(F)c3F)c2)c1` the AC50 was 6.96 µM.
Work on `COc1ccc2cc(C(=O)N/N=C/c3sc4ccccc4c3O)ccc2c1` yielded an AC50 of 7.3 µM.
With `C/C(=N/NC(=O)c1cccs1)c1c(C)[nH]n(-c2nc3ccccc3s2)c1=O` the AC50 was 16.2 µM.
With `CCN(CC)c1ccc(/C=N/NC(=O)c2ccoc2C)c(O)c1` the AC50 was 2.04 µM.
